Source: ChEMBL document CHEMBL1157117, “Synthesis of [11C]SSR149415 and preliminary imaging studies using positron emission tomography” (Bioorg Med Chem Lett, 2010)

Legend:
[1] = Fraction unbound in baboon plasma; type: ADME, cell-free; details: papio anubis
[2] = Metabolic stability in baboon blood at 2.5+/-0.8 mCi, iv after 10 mins; type: ADME, organism-based; details: papio anubis, read-out: Stability
[3] = Octanol/water partition coefficient, log D of the compound; type: physicochemical
[4] = Biodistribution in baboon spleen at 2.5+/-0.8 mCi, iv followed by second dose administered > 2 hrs after initial dose measured per cc after 90 mins; type: ADME, organism-based; details: papio anubis, in vivo, 1.5 h
[5] = Biodistribution in baboon lung at 2.5+/-0.8 mCi, iv followed by second dose administered > 2 hrs after initial dose measured per cc after 90 mins; type: ADME, organism-based; details: papio anubis, in vivo, 1.5 h
[6] = Selectivity ratio of vasopressin V1b receptor over vasopressin V1a receptor
[7] = Selectivity ratio of vasopressin V1b receptor over vasopressin V2 receptor
[8] = Selectivity ratio of vasopressin V1b receptor over oxytocin receptor
[9] = Biodistribution in baboon liver at 2.5+/-0.8 mCi, iv followed by second dose administered > 2 hrs after initial dose measured per cc after 90 mins; type: ADME, organism-based; details: papio anubis, in vivo, 1.5 h
[10] = Biodistribution in baboon heart at 2.5+/-0.8 mCi, iv followed by second dose administered > 2 hrs after initial dose measured per cc after 90 mins; type: ADME, organism-based; details: papio anubis, in vivo, 1.5 h

| fraction unbound [1] | remaining at 10 min [2] [%] | logD [3] | Drug uptake [4] [%ID] | Drug uptake [5] [%ID] | Ratio [6] | Ratio [7] | Ratio [8] | Drug uptake [9] [%ID] | Drug uptake [10] [%ID] | Compound |
| --- | --- | --- | --- | --- | --- | --- | --- | --- | --- | --- |
| 0.0254 | 50 | 3.22 |  |  |  |  |  |  |  | COc1ccccc1[C@@]1(N2C[C@H](O)C[C@H]2C(=O)N(C)C)C(=O)N(S(=O)(=O)c2ccc(O[11CH3])cc2OC)c2ccc(Cl)cc21 |
|  |  |  | 0.01 | 0.01 | 100 | 100 | 100 | 0.1 | 0.01 | COc1ccc(S(=O)(=O)N2C(=O)[C@@](c3ccccc3OC)(N3C[C@H](O)C[C@H]3C(=O)N(C)C)c3cc(Cl)ccc32)c(OC)c1 [NELIVAPTAN] |
